Test results taken from patent US20230391684A1, “NITROGEN FERTILIZER COMPOSITIONS BASED ON POLYPHOSPHATE CAGED STRUCTURE” (priority 2020, published 2023).

Tests used:
[1] = Water leaching assay (2 g, 10 mL water, 8 min): water-soluble and water-insoluble nitrogen/urea; type: physicochemical; details: 2 g leached with 10 mL water in 8 min, dried residue
Method: Determination of water-insoluble nitrogen: 2 g of the product in powder form, is weighed into a filter paper (Whatman 1) placed in a funnel. It is leached with 10 mL water added dropwise from a burette within a period of 8 min. The wet residue is placed together with the filter paper, in a petridish and dried at 50° C. After drying, the residue is ground and used for analysis of nitrogen.
Determination of water-soluble nitrogen: 2 g of the product in powder form, is weighed into a filter paper (Whatman 1) placed in a funnel. It is leached with 10 mL water added dropwise from a burette within a period of 8 min. The filtrate is placed together with the filter paper, in a petridish and dried at 50° C. After drying, the dried mass is weighed. It is analyzed for N as described above.

[2] = From the text: The fertilizer composition will contain urea with reduced water solubility. […] Preferably no more than 30 to 60 wt. % of the urea is soluble. More preferably no more than 30 to 50 wt. % of urea is soluble.
XRD was of the granulated product which was powdered for recording of XRD.

## NC(N)=O [urea]
[1]
  urea content of residue after leaching with water: no urea was detectable
[2]
  total N from fertilizer soluble in water: 100 wt. %
